Measured values published in PubChem BioAssay AID212 (DTP/NCI, 2004).
“And” between values parts separate entries of the source, which are not always exact repeats. Equal entries are not always repeated. Results filed as inconclusive are left out.

System: BDF1 mice, colon carcinoma 38 sc, T/C %
Assay: NCI In Vivo Anticancer Drug Screen. Data for tumor model Colon Carcinoma 38 (subcutaneous) in B6D2F1 (BDF1) mice
Settings: endpoint: median tumor weight (est.), higher = larger tumour
Method in brief: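 Ratio of survival or tumor size, compound-treated animals relative to vehicle controls, in tumor-bearing mice.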

[1] = dose: 100.0 mg/kg/injection, schedule: Q07DX002 (ip), vehicle: saline with Tween-80
[2] = dose: 200.0 mg/kg/injection, schedule: Q07DX002 (ip), vehicle: saline with Tween-80
[3] = dose: 25.0 mg/kg/injection, schedule: Q07DX002 (ip), vehicle: saline with Tween-80
[4] = dose: 50.0 mg/kg/injection, schedule: Q07DX002 (ip), vehicle: saline with Tween-80
[5] = dose: 200.0 mg/kg/injection, schedule: Q07DX002 (ip), vehicle: saline

Structure (SMILES): CC(C)[C@]12O[C@H]1[C@@H]1O[C@]13[C@]1(O[C@H]1C[C@H]1C4=C(C(=O)OC4)[C@@H](O)C[C@@]13C)[C@@H]2O
- T/C (dose: 25.0 micrograms/kg/injection, schedule: Q07DX002 (ip), vehicle: saline + alcohol): 113 % of control
- T/C (dose: 100.0 micrograms/kg/injection, schedule: Q07DX002 (ip), vehicle: saline + alcohol): 113 % of control
- T/C (dose: 200.0 micrograms/kg/injection, schedule: Q07DX002 (ip), vehicle: saline + alcohol): 109 % of control
- T/C (dose: 400.0 micrograms/kg/injection, schedule: Q07DX002 (ip), vehicle: saline + alcohol): 63 % of control

Structure (SMILES): CCC[CH2][Sn]1([CH2]CCC)[O]C2C(CO)OC(n3ccc(N)nc3=O)C2[O]1 (stereo not given)
- T/C (dose: 1.56 mg/kg/injection, schedule: Q07DX002 (ip), vehicle: Klucel (hydroxypropylcellulose) (HPC)): 61 % of control and 72 % of control
- T/C (dose: 25.0 mg/kg/injection, schedule: Q07DX002 (ip), vehicle: Klucel (hydroxypropylcellulose) (HPC)): 91 % of control

Structure (SMILES): COc1ccc(-c2cc(=O)c3cccc(CC(=O)O)c3o2)cc1
- T/C [1]: 84 % of control
- T/C [2]: 113 % of control

Structure (SMILES): CC1c2ccccc2Cn2cc3c(c21)C(=O)c1cccc(OP(=O)(O)OCc2ccccc2)c1C3=O (stereo not given)
- T/C (dose: 0.5 mg/kg/injection, schedule: Q01DX012 (ip), vehicle: saline with Tween-80): 62 % of control
- T/C (dose: 1.0 mg/kg/injection, schedule: Q01DX012 (ip), vehicle: saline with Tween-80): 73 % of control
- T/C (dose: 2.0 mg/kg/injection, schedule: Q01DX012 (ip), vehicle: saline with Tween-80): 23 % of control
- T/C (dose: 4.0 mg/kg/injection, schedule: Q01DX012 (ip), vehicle: saline with Tween-80): 28 % of control

Structure (SMILES): O=C(O)C1CC(c2ccccc2)=NN1c1ccccc1 (stereo not given)
- T/C (dose: 25.0 mg/kg/injection, schedule: Q07DX002 (ip), vehicle: water): 114 % of control and 103 % of control
- T/C (dose: 100.0 mg/kg/injection, schedule: Q07DX002 (ip), vehicle: water): 65 % of control
- T/C (dose: 200.0 mg/kg/injection, schedule: Q07DX002 (ip), vehicle: water): 56 % of control and 69 % of control

Structure (SMILES): Nc1n[n+](-c2ccccc2)no1
- T/C (dose: 3.12 mg/kg/injection, schedule: Q07DX002 (ip), vehicle: water): 99 % of control and 108 % of control
- T/C (dose: 6.25 mg/kg/injection, schedule: Q07DX002 (ip), vehicle: water): 85 % of control and 86 % of control and 98 % of control
- T/C (dose: 50.0 mg/kg/injection, schedule: Q07DX002 (ip), vehicle: water): 70 % of control and 74 % of control and 94 % of control

Structure (SMILES): CC(=O)Nc1ccc(S(=O)(=O)CO)cc1
- T/C (dose: 12.5 mg/kg/injection, schedule: Q07DX002 (ip), vehicle: saline with Tween-80): 116 % of control and 97 % of control
- T/C [3]: 84 % of control and 107 % of control
- T/C [4]: 89 % of control
- T/C [1]: 88 % of control and 91 % of control
- T/C [2]: 89 % of control and 97 % of control

Structure (SMILES): C=C1C(=O)OC2/C=C(\C)CC(O)/C=C(/CO)CC(OC(=O)/C(C)=C/C)C12 (stereo not given)
- T/C (dose: 7.5 mg/kg/injection, schedule: Q07DX002 (ip), vehicle: saline + alcohol): 223 % of control
- T/C (dose: 30.0 mg/kg/injection, schedule: Q07DX002 (ip), vehicle: saline + alcohol): 168 % of control
- T/C (dose: 60.0 mg/kg/injection, schedule: Q07DX002 (ip), vehicle: saline + alcohol): 441 % of control

Structure (SMILES): Cc1ccccc1N(CC1CO1)CC1CO1 (stereo not given)
- T/C [3]: 81 % of control
- T/C [4]: 104 % of control
- T/C [1]: 57 % of control
- T/C [2]: 123 % of control
- T/C [5]: 154 % of control
- T/C (dose: 800.0 mg/kg/injection, schedule: Q07DX002 (ip), vehicle: saline): 89 % of control

Structure (SMILES): O=C(O)CCc1cccc2c(=O)cc(-c3ccccc3)oc12
- T/C (dose: 100.0 mg/kg/injection, schedule: Q07DX002 (ip), vehicle: saline): 60 % of control
- T/C [5]: 100 % of control
- T/C (dose: 400.0 mg/kg/injection, schedule: Q07DX002 (ip), vehicle: saline): 120 % of control
